Assay results reported in BindingDB's records for PubMed 34043359 (China Pharmaceutical University, 2021).

Target: Signal transducer and activator of transcription 3 (Homo sapiens, UniProt P40763)
Experiment: Binding affinity to recombinant GST tagged STAT3 (unknown origin) assessed as dissociation constant

Signal transducer and activator of transcription 3, sequence (P40763 whole entry): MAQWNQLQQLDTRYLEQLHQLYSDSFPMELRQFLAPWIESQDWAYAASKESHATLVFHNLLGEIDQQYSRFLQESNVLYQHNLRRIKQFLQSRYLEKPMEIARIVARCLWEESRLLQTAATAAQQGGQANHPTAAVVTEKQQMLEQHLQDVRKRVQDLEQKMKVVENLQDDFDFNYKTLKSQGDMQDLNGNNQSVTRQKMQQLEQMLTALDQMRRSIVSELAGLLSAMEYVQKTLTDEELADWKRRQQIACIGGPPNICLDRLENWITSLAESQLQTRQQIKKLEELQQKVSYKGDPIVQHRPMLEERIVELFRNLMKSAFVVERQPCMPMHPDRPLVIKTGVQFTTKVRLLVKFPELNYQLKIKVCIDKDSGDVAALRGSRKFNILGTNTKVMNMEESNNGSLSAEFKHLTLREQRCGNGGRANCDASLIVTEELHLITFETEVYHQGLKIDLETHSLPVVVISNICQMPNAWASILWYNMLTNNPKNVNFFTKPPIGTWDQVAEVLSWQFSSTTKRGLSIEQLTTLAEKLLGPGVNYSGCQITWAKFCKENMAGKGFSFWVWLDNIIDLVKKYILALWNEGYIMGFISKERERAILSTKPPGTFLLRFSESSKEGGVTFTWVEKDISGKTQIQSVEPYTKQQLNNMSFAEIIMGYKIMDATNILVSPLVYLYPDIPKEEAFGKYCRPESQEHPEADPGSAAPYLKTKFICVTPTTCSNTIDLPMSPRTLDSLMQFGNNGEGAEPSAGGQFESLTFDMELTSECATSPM

koff: 0.0152 s⁻¹
Compound: COc1cc(/C=C/c2ccc(OCCCCCCC(=O)NO)cc2)cc(OC)c1
